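Cultured in 96-well plates, cells were exposed to test compound for 48 hours across five concentrations. GI50 is the concentration that inhibits growth by half.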 Active and inactive are the calls of the source. Rule as the data show it: active = GI50 up to about 1.1 µM and inactive = higher.
Assays:
Assay in all cases: NCI tumour cell line growth inhibition, 48 h
UO-31 = tested on: UO-31
HOP-62 = tested on: HOP-62
HOP-92 = tested on: HOP-92
NCI-H522 = tested on: NCI-H522
NCI-H23 = tested on: NCI-H23
SF-268 = tested on: SF-268
MDA-MB-435 = tested on: MDA-MB-435
UACC-62 = tested on: UACC-62
PC-3 = tested on: PC-3
CAKI-1 = tested on: CAKI-1
SNB-75 = tested on: SNB-75
COLO 205 = tested on: COLO 205
MDA-MB-231 = tested on: MDA-MB-231
EKVX = tested on: EKVX
LOX IMVI = tested on: LOX IMVI
SW-620 = tested on: SW-620
NCI/ADR-RES = tested on: NCI/ADR-RES
A498 = tested on: A498
RXF 393 = tested on: RXF 393
SF-539 = tested on: SF-539

Structure (SMILES) | GI50 (UO-31) | GI50 (HOP-62) | GI50 (HOP-92) | GI50 (NCI-H522) | GI50 (NCI-H23) | GI50 (SF-268) | GI50 (MDA-MB-435) | GI50 (UACC-62) | GI50 (PC-3) | GI50 (CAKI-1) | GI50 (SNB-75) | GI50 (COLO 205) | GI50 (MDA-MB-231) | GI50 (EKVX) | GI50 (LOX IMVI) | GI50 (SW-620) | GI50 (NCI/ADR-RES) | GI50 (A498) | GI50 (RXF 393) | GI50 (SF-539)
N=C(N)NS(=O)(=O)c1ccc(Nc2c3ccccc3nc3c(C(=O)NC(CO)(CO)CO)cccc23)cc1 | 27.5 µM (inactive) | 13.6 µM (inactive) | 14.4 µM (inactive) | 11.7 µM (inactive) | 36.5 µM (inactive) | 19.5 µM (inactive) | 24.9 µM (inactive) | 19.5 µM (inactive) | 32.5 µM (inactive) | 34.5 µM (inactive) | 2.3 µM (inactive) | 12.6 µM (inactive) | 21.8 µM (inactive) | > 100 µM (inactive) | 18.7 µM (inactive) | 17.6 µM (inactive) | > 100 µM (inactive) | 19.3 µM (inactive) | – | –
CCN(CC)CCOC(=O)CCN1CC2CCC(CC2)C1 | > 100 µM (inactive) | – | > 100 µM (inactive) | > 100 µM (inactive) | > 100 µM (inactive) | – | > 100 µM (inactive) | > 100 µM (inactive) | > 100 µM (inactive) | > 100 µM (inactive) | 78.2 µM (inactive) | > 100 µM (inactive) | > 100 µM (inactive) | > 100 µM (inactive) | > 100 µM (inactive) | > 100 µM (inactive) | > 100 µM (inactive) | > 100 µM (inactive) | > 100 µM (inactive) | > 100 µM (inactive)
CN1C(=O)C2(Cc3cn(C45CC67SSC(CO)(C(=O)N6C4Nc4ccccc45)N(C)C7=O)c4ccccc34)SSC1(CO)C(=O)N2C (centres undefined) | 0.0335 µM (active) | 0.0634 µM (active) | 0.053 µM (active) | < 0.01 µM (active) | < 0.01 µM (active) | 0.0191 µM (active) | 0.0335 µM (active) | 0.0239 µM (active) | 0.0478 µM (active) | < 0.01 µM (active) | 0.0423 µM (active) | < 0.01 µM (active) | 0.0133 µM (active) | 0.0282 µM (active) | 0.0114 µM (active) | 0.0108 µM (active) | 0.0197 µM (active) | 0.0291 µM (active) | – | 0.011 µM (active)
Cn1c2ccc3cc2c(=S)c2cc(ccc21)OCCOCCOCCOCCOCCO3 | – | > 10 µM (inactive) | > 10 µM (inactive) | > 10 µM (inactive) | > 10 µM (inactive) | > 10 µM (inactive) | > 10 µM (inactive) | > 10 µM (inactive) | > 10 µM (inactive) | > 10 µM (inactive) | > 10 µM (inactive) | > 10 µM (inactive) | > 10 µM (inactive) | > 10 µM (inactive) | > 10 µM (inactive) | > 10 µM (inactive) | > 10 µM (inactive) | > 10 µM (inactive) | > 10 µM (inactive) | > 10 µM (inactive)
CC(=O)OCC1OC(O/C=C(\CN=[N+]=[N-])C(C)=O)C(OC(C)=O)C(OC(C)=O)C1OC(C)=O (centres undefined) | 8.28 µM (inactive) | 25.6 µM (inactive) | 6.15 µM (inactive) | 1.79 µM (inactive) | 9.44 µM (inactive) | 21.6 µM (inactive) | 4.57 µM (inactive) | 11.6 µM (inactive) | 12 µM (inactive) | 3.01 µM (inactive) | 13.5 µM (inactive) | 1.74 µM (inactive) | 12.7 µM (inactive) | 14.7 µM (inactive) | 3.47 µM (inactive) | 3.53 µM (inactive) | 21 µM (inactive) | 20.3 µM (inactive) | – | –
Nn1c(CCCCCCCCc2nnc(COc3ccc4ccccc4c3O)n2N)nnc1COc1ccc2ccccc2c1O | 28.4 µM (inactive) | – | 17.3 µM (inactive) | 14.6 µM (inactive) | 16 µM (inactive) | 29.8 µM (inactive) | 29.9 µM (inactive) | 26.4 µM (inactive) | 26.7 µM (inactive) | 18.2 µM (inactive) | 51.1 µM (inactive) | 19.5 µM (inactive) | 23.2 µM (inactive) | 43.7 µM (inactive) | – | 52.7 µM (inactive) | 17.5 µM (inactive) | 35.8 µM (inactive) | 26.1 µM (inactive) | –
OCC1OC(Oc2cc(O)cc(/C=C\c3ccc(O)cc3)c2)C(O)C(O)C1O (centres undefined) | > 100 µM (inactive) | > 100 µM (inactive) | > 100 µM (inactive) | > 100 µM (inactive) | – | – | > 100 µM (inactive) | > 100 µM (inactive) | > 100 µM (inactive) | > 100 µM (inactive) | > 100 µM (inactive) | – | > 100 µM (inactive) | > 100 µM (inactive) | > 100 µM (inactive) | > 100 µM (inactive) | > 100 µM (inactive) | > 100 µM (inactive) | > 100 µM (inactive) | > 100 µM (inactive)
CC(=O)OCC1OC(n2c3c(c(-c4cccc5ccccc45)c(C#N)c2=S)CCCC3)C(OC(C)=O)C(OC(C)=O)C1OC(C)=O (centres undefined) | 31.3 µM (inactive) | > 100 µM (inactive) | 0.112 µM (active) | > 100 µM (inactive) | > 100 µM (inactive) | > 100 µM (inactive) | > 100 µM (inactive) | > 100 µM (inactive) | 27.7 µM (inactive) | – | – | > 100 µM (inactive) | > 100 µM (inactive) | 25.8 µM (inactive) | > 100 µM (inactive) | > 100 µM (inactive) | > 100 µM (inactive) | > 100 µM (inactive) | > 100 µM (inactive) | > 100 µM (inactive)
